Results from BindingDB's records for doi:10.1016/j.bmcl.2020.126986 (Abbvie, 2020).

Legend:
[1] = Inhibition of NS5B polymerase in HCV genotype 1b Con1 infected in human HuH7 replicon cells assessed as inhibition of viral replication after 3 days by luciferase reporter gene assay
[2] = Inhibition of NS5B polymerase in HCV genotype 1a H77 infected in human HuH7 replicon cells assessed as inhibition of viral replication after 3 days by luciferase reporter gene assay

Compound | EC50 [1] [µM] | EC50 [2] [µM]
CC(C)OC(=O)[C@H](C)N[P@](=O)(OC[C@H]1O[C@@H](n2ccc(=O)[nH]c2=O)[C@](Cl)(Br)[C@@H]1O)Oc1ccccc1 | 0.147 | 0.114
CC(C)OC(=O)[C@H](C)N[P@](=O)(OC[C@H]1O[C@@H](n2ccc(=O)[nH]c2=O)[C@](Cl)(Br)[C@@H]1OC(=O)[C@@H](N)C(C)C)Oc1ccccc1 | 0.167 | 0.156
COCC(C)C(=O)OC[C@H](C)NP(=O)(OC[C@H]1O[C@@H](n2ccc(=O)[nH]c2=O)[C@](Cl)(Br)[C@@H]1O)Oc1ccccc1 (stereo partly drawn) | 0.522 | 0.592
CCOC(=O)[C@H](C)N[P@@](=O)(OC[C@H]1O[C@@H](n2ccc(=O)[nH]c2=O)[C@](Cl)(Br)[C@@H]1O)Oc1ccccc1 | 1.19 | 1.21
CCOC(=O)C(C)(C)NP(=O)(OC[C@H]1O[C@@H](n2ccc(=O)[nH]c2=O)[C@](Cl)(Br)[C@@H]1O)Oc1ccccc1 (stereo partly drawn) | 1.17 | 0.96
CCOC(=O)[C@H](C)N[P@](=O)(OC[C@H]1O[C@@H](n2ccc(=O)[nH]c2=O)[C@](Cl)(Br)[C@@H]1O)Oc1ccccc1 | 0.301 | 0.298
COCC(=O)OC[C@H](C)NP(=O)(OC[C@H]1O[C@@H](n2ccc(=O)[nH]c2=O)[C@](Cl)(Br)[C@@H]1O)Oc1ccccc1 (stereo partly drawn) | 3.04 | 2.5
CC(C)OC(=O)[C@H](C)N[P@@](=O)(OC[C@H]1O[C@@H](n2ccc(=O)[nH]c2=O)[C@](Cl)(Br)[C@@H]1O)Oc1ccccc1 | 0.515 | 0.415
COc1cccc(O[P@](=O)(N[C@@H](C)C(=O)OC(C)C)OC[C@H]2O[C@@H](n3ccc(=O)[nH]c3=O)[C@](Cl)(Br)[C@@H]2O)c1 | 0.127 | 0.098
CC(C)OC(=O)[C@H](C)N[P@](=O)(OC[C@H]1O[C@@H](n2ccc(=O)[nH]c2=O)[C@](Cl)(Br)[C@@H]1O)Oc1cccc2ccccc12 | 0.139 | 0.106

More lines, in order of falling EC50 [1], values ahead:

EC50 [1] [µM] | EC50 [2] [µM] | Compound
1.38 | 1.09 | CC(C)OC(=O)C(C)(C)NP(=O)(OC[C@H]1O[C@@H](n2ccc(=O)[nH]c2=O)[C@](Cl)(Br)[C@@H]1O)Oc1ccccc1 (stereo partly drawn)
0.455 | 0.317 | CC(C)C(=O)OC[C@H](C)NP(=O)(OC[C@H]1O[C@@H](n2ccc(=O)[nH]c2=O)[C@](Cl)(Br)[C@@H]1O)Oc1ccccc1 (stereo partly drawn)
0.387 | 0.414 | COCC(C)OC(=O)[C@H](C)NP(=O)(OC[C@H]1O[C@@H](n2ccc(=O)[nH]c2=O)[C@](Cl)(Br)[C@@H]1O)Oc1ccccc1 (stereo partly drawn)
0.099 | 0.094 | CC(C)OC(=O)[C@H](C)N[P@](=O)(OC[C@H]1O[C@@H](n2ccc(=O)[nH]c2=O)[C@](Cl)(Br)[C@@H]1OC(=O)[C@@H](N)C(C)C)Oc1cccc2ccccc12
